Laboratory results as given in publication PMC9181188 (International Journal of Molecular Sciences, 2022).
Values after ≈ are worked out from the molar mass of the structure shown. Like-named read-outs stand apart in the source and are kept apart here.

Tests used:
[1] = target: T1, S. aureus topoisomerase IV (Staphylococcus aureus, UniProt P0C1S7+P0C1U9); assay: S. aureus topoisomerase IV decatenation assay; type: biochemical
T1 construct: purchased Inspiralis
Description: The assay was performed using S. aureus topoisomerase IV […] kit (Inspiralis). Kinetoplast DNA (kDNA) was the substrate for topoisomerase IV.

[2] = target: S. aureus DNA gyrase (Staphylococcus aureus, UniProt P0A0K8+P20831); assay: biochemical
Sequence of S. aureus DNA gyrase (P20831 whole entry): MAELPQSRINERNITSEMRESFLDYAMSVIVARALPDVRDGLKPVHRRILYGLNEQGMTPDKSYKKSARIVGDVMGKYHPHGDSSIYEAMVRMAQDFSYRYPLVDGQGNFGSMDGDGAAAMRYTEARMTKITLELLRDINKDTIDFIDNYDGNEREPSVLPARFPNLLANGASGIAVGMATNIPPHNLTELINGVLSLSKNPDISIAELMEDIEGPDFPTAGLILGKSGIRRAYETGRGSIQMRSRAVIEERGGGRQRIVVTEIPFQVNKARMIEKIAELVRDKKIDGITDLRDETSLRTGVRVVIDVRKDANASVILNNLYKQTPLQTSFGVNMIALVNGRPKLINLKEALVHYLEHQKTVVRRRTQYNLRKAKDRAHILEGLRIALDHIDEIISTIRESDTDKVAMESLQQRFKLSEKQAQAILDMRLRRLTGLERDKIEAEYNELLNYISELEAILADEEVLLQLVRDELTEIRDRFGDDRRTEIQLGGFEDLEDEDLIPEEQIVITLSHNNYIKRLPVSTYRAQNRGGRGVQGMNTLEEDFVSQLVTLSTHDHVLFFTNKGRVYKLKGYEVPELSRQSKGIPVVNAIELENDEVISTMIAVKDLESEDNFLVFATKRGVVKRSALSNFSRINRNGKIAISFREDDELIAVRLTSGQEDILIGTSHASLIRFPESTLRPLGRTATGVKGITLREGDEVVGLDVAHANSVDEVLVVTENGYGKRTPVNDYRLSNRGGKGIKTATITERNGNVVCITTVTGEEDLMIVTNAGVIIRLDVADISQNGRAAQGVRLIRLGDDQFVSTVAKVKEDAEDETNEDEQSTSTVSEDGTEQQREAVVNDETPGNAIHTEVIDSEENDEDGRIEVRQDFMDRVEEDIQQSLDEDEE
Sequence of S. aureus DNA gyrase (P0A0K8 whole entry): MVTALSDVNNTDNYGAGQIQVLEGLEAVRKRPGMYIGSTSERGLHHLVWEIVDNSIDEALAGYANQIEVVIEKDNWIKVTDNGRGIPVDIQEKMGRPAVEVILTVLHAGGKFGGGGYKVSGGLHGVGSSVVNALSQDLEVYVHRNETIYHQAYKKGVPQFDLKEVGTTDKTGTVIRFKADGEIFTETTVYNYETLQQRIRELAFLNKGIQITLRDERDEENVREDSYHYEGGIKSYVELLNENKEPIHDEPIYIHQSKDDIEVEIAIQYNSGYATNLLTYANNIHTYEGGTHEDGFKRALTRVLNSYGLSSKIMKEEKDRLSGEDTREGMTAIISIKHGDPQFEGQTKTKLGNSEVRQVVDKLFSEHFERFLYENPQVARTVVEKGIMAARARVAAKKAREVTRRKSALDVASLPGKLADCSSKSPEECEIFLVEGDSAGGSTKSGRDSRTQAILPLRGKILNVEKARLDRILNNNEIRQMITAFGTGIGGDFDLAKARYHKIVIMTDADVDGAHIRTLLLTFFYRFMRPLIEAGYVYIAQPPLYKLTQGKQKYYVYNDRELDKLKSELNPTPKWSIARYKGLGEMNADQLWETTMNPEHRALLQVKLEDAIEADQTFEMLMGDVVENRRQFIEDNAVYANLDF

[3] = system: SW480 cells; assay: MTT assay, SW480; type: cell-based, human; conditions: for IC50: Homo sapiens, SW480, 72 h, human primary colon cancer, 72 h, MTT, mean ± SD
[4] = system: SW620 cells; assay: MTT assay, SW620; type: cell-based, human
[5] = system: PC3 cells; assay: MTT assay, PC3; type: cell-based, human
[6] = system: HaCaT cells; assay: MTT assay, HaCaT normal cells; type: cell-based; conditions: human immortal keratinocyte cell line, 72 h, mean ± SD
[7] = system: S. aureus NCTC 4163; assay: MIC, twofold microdilution, standard strain; type: cell-based; conditions: Staphylococcus aureus, NCTC4163, 18 h, read-out: MIC S. aureus NCTC 4163
[8] = system: S. aureus ATCC 25923; assay: MIC, twofold microdilution, standard strain; type: cell-based; conditions: Staphylococcus aureus, ATCC25923, 18 h, read-out: MIC S. aureus ATCC 25923
[9] = system: S. aureus ATCC 6538; assay: MIC, twofold microdilution, standard strain; type: cell-based; conditions: Staphylococcus aureus, ATCC6538, 18 h, read-out: MIC S. aureus ATCC 6538
[10] = system: S. aureus ATCC 29213; assay: MIC, twofold microdilution, standard strain; type: cell-based; conditions: Staphylococcus aureus, ATCC29213, 18 h, read-out: MIC S. aureus ATCC 29213
[11] = system: S. epidermidis ATCC 12228; assay: MIC, twofold microdilution, standard strain; type: cell-based; conditions: Staphylococcus epidermidis, ATCC12228, 18 h, read-out: MIC S. epidermidis ATCC 12228
[12] = system: S. epidermidis ATCC 35984; assay: MIC, twofold microdilution, standard strain; type: cell-based; conditions: Staphylococcus epidermidis, ATCC35984, 18 h, read-out: MIC S. epidermidis ATCC 35984
[13] = system: E. coli ATCC 25922; assay: MIC, twofold microdilution, standard strain; type: cell-based, Escherichia coli; conditions: Escherichia coli, ATCC25922, 18 h, read-out: MIC E. coli ATCC 25922
[14] = system: P. aeruginosa ATCC 27853; assay: MIC, twofold microdilution, standard strain; type: cell-based; conditions: Pseudomonas aeruginosa, ATCC27853, 18 h, read-out: MIC P. aeruginosa ATCC 27853
[15] = system: S. epidermidis KR 4047 825/19; assay: MIC, clinical S. epidermidis strain; type: cell-based; conditions: Staphylococcus epidermidis, KR4047825/19, quinolone-resistant, 18 h of treatment
[16] = system: S. epidermidis KR 4243 829/19; assay: MIC, clinical S. epidermidis strain; type: cell-based; conditions: Staphylococcus epidermidis, KR4243829/19, quinolone-susceptible, 18 h of treatment
[17] = system: S. epidermidis KR 4313 834/19; assay: MIC, clinical S. epidermidis strain; type: cell-based; conditions: Staphylococcus epidermidis, KR4313834/19, quinolone-susceptible, 18 h of treatment
[18] = system: S. epidermidis KR 4358/2 840/19; assay: MIC, clinical S. epidermidis strain; type: cell-based; conditions: Staphylococcus epidermidis, KR4358/2840/19, 18 h, read-out: MIC KR 4358/2 840/19
[19] = system: S. epidermidis T 5253 845/19; assay: MIC, clinical S. epidermidis strain; type: cell-based; conditions: Staphylococcus epidermidis, T5253845/19, quinolone-resistant, 18 h of treatment
[20] = system: S. epidermidis T 5399 848/19; assay: MIC, clinical S. epidermidis strain; type: cell-based; conditions: Staphylococcus epidermidis, T5399848/19, quinolone-susceptible, 18 h of treatment
[21] = system: S. epidermidis T 5501 851/19; assay: MIC, clinical S. epidermidis strain; type: cell-based; conditions: Staphylococcus epidermidis, T5501851/19, read-out: MIC T 5501 851/19, quinolone-susceptible, 18 h of treatment
[22] = system: M. tuberculosis H37Rv; assay: MABA (microplate Alamar blue assay) MIC; type: cell-based; conditions: Mycobacterium tuberculosis, 336 h, read-out: MIC M. tuberculosis H37Rv
[23] = system: M. tuberculosis Spec. 192 (Sensitive to Tuberculostatics); assay: MABA (microplate Alamar blue assay) MIC; type: cell-based; conditions: Mycobacterium tuberculosis, 336 h, read-out: MIC M. tuberculosis Spec. 192 (Sensitive to Tuberculostatics)
[24] = system: SW480, SW620, and PC3 cancer cell lines; assay: MTT assay, cancer cell lines as a group; type: cell-based, human; conditions: 72 h, all three cancer cell lines (SW480, SW620, PC3), read-out: IC50 against all tested cancer cell lines
[25] = system: standard staphylococci (S. aureus, S. epidermidis); assay: MIC, standard Gram-positive strains as a group; type: cell-based; conditions: Staphylococcus aureus; range over standard Gram-positive strains; read-out: MIC against standard staphylococci
[26] = SI = IC50 for normal cell line (HaCaT)/IC50 cancer cell line

T1 sequence (P0C1U9 whole entry): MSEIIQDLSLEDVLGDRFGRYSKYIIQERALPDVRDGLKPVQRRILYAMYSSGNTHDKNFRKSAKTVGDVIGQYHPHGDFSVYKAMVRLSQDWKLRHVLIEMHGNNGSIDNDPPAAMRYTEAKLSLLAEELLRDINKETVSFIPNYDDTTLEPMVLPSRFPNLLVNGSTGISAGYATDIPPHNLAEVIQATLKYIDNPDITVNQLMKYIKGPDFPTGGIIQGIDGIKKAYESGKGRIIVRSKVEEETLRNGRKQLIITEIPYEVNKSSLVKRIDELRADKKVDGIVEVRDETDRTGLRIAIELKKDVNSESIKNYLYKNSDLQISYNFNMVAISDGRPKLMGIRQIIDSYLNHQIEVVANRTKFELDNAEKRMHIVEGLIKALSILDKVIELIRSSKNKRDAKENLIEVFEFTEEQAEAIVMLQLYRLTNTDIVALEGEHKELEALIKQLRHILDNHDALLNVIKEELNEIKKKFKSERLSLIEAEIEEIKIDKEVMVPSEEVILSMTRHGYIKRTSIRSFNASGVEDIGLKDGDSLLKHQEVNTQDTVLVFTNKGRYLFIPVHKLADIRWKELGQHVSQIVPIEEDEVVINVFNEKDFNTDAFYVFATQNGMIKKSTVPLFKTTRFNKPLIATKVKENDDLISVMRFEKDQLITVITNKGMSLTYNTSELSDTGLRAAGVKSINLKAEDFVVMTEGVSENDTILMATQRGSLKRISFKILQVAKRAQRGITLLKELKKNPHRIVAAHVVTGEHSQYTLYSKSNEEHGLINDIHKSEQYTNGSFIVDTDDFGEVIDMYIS
T1 sequence (P0C1S7 whole entry): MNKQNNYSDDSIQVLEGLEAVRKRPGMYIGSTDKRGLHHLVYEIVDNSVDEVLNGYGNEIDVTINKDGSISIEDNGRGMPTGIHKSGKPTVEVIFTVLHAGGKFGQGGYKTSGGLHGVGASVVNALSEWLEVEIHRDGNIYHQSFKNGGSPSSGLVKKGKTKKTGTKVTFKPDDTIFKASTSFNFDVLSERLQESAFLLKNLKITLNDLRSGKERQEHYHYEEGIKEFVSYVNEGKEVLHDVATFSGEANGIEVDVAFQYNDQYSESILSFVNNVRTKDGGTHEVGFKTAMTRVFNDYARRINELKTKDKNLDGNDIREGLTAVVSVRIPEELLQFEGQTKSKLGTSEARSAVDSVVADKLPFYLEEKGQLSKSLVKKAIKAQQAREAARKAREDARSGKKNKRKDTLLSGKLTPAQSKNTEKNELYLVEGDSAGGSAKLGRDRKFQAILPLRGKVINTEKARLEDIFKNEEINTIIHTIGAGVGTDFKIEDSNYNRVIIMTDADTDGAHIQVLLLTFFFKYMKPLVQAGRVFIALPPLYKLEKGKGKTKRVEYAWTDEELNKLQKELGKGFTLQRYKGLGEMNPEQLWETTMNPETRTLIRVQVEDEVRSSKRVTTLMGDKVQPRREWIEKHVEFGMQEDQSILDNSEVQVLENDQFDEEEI

For CC=CC(=O)N1CCN(c2cc3c(cc2F)c(=O)c(C(=O)O)cn3C2CC2)CC1 [Compound 1], the IC50 [1] was > 160 µM and the IC50 [2] was > 160 µM.
CCCCCCCCCCCCCCCC(=O)N1CCC[C@H]2CN(c3c(F)cc4c(=O)c(C(=O)O)cn(C5CC5)c4c3OC)C[C@H]21 [Compound 9m, 1-Cyclopropyl-6-fluoro-7-(1-hexadecanoyl-octahydro-pyrrolo[3,4-b]pyridin-6-yl)-8-methox-4-oxo-1,4-dihydro-quinoline-3-carboxylic acid] was tested, and the IC50 [3] was 9.4 ± 2.3 µM, the “SI SW480” value [3, 26] was 10.3 and the IC50 ([4]; Homo sapiens, SW-620, 72 h, human metastatic colon cancer, 72 h, MTT, mean ± SD) was 10.4 ± 1.4 µM. For the same compound, the “SI SW620” value [4, 26] was 9.3, the IC50 ([5]; Homo sapiens, PC-3, 72 h, human metastatic prostate cancer, 72 h, MTT, mean ± SD) was 8.1 ± 1.5 µM and the “SI PC3” value [5, 26] was 11.9. For the same compound, the IC50 [6] was 96.7 ± 2.6 µM, the MIC [7] was > 512 µg/mL and the MIC [8] was > 512 µg/mL. The MIC [9] was > 512 µg/mL, the MIC [10] was > 512 µg/mL and the MIC [11] was > 512 µg/mL. For the same compound, the MIC [12] was > 512 µg/mL, the MIC [13] was > 512 µg/mL and the MIC [14] was > 512 µg/mL. The MIC [15] was 512 µg/mL (≈ 800 µM), the MIC [16] was 512 µg/mL (≈ 800 µM) and the MIC [17] was 512 µg/mL (≈ 800 µM). The MIC [18] was > 512 µg/mL, the MIC [19] was 512 µg/mL (≈ 800 µM) and the MIC [20] was 512 µg/mL (≈ 800 µM). The MIC [21] was 512 µg/mL (≈ 800 µM), the MIC [22] was > 512 µg/mL and the MIC [23] was > 512 µg/mL. The IC50 ([24]; Homo sapiens) was 5 to 10 µM, the IC50 [24] was 5.6 to 10.4 µM and the MIC [25] was > 32 µg/mL.
NNC(=O)c1ccncc1 [Isoniazid (INH), Isoniazid, reference compound] was tested, and the MIC [22] was 0.125 µg/mL (≈ 0.911 µM) and the MIC ([23]; 2 weeks of treatment) was 0.125 µg/mL (≈ 0.911 µM).
For COc1cccc2c1C(=O)c1c(O)c3c(c(O)c1C2=O)C[C@@](O)(C(=O)CO)C[C@@H]3O[C@H]1C[C@H](N)[C@H](O)[C@H](C)O1 [Doxorubicin, reference compound], the IC50 [3] was 0.75 ± 0.1 µM and the IC50 [6] was 0.29 ± 0.1 µM.
Work on CC[C@@H](CO)NCCN[C@@H](CC)CO [Ethambutol (EMB), Ethambutol, reference compound] yielded an MIC ([22]; 2 weeks of treatment) of 2 µg/mL (≈ 9.79 µM) and an MIC ([23]; 2 weeks of treatment) of 2 µg/mL (≈ 9.79 µM).
CO[C@H]1/C=C/O[C@@]2(C)Oc3c(C)c(O)c4c(O)c(c(/C=N/N5CCN(C)CC5)c(O)c4c3C2=O)NC(=O)/C(C)=C\C=C\[C@H](C)[C@H](O)[C@@H](C)[C@@H](O)[C@@H](C)[C@H](OC(C)=O)[C@@H]1C [Rifampicin (RMP), Rifampicin, reference compound] showed an MIC ([22]; 2 weeks of treatment) of 1 µg/mL (≈ 1.22 µM) and an MIC ([23]; 2 weeks of treatment) of 1 µg/mL (≈ 1.22 µM).
